These results are taken from US6365643B1, “Photoinitiators for cationic curing” (Th. Goldschmidt AG, priority 1999, dated 2002).

The structures appear in SMILES notation. Like-named read-outs stand apart in the source and are kept apart here.

A short description of data set [1]: Solubility in white spirit. The class given is physicochemical. The text has this: The solubility of the cationic photoinitiators of the invention was compared with the solubility of commercial, hydroxyl-bearing cationic photoinitiators.
The nature of data set [2]: Miscibility with organopolysiloxanes containing epoxy groups. The data set is classed as physicochemical.

Take `CCCCCCCCCCCCC(O)COc1ccc([I+]c2ccccc2)cc1` (stereo not drawn) [CD-1012]: the “solubility in white spirit” value in data set [1] is “insoluble”; in data set [1] (Table 1, Comparison 1) it was “insoluble”. For the same compound, in data set [2], the “miscibility with organopolysiloxanes containing epoxy groups” value was “no miscibility”.
